Experimental data as given in patent US6458983B1, “Method for synthesizing complexes of platinum with iminoethers and their use as antitumoral drugs and nucleotide-base modifiers” (priority 1998, dated 2002).
Marks after values point to notes of the source that are not given here.

Columns and labels:
[1] = background statement; cited from earlier work
P388 murine leukaemia = test: Antitumoral activity in vivo, survival of P388 murine leukemia carrier mice; set-up: species or system B6D2F1 female mice
Method: (§1) The antitumoral activity of compounds having the formula trans-[PtCl2(NH3){Z-HN═C(OMe)Me}] (1) and trans-[PtCl2(NH3){E-HN═C(OMe)Me}] (2) was tested. Specifically, the antitumoral activity of compounds (1) and (2) was analyzed in experimental systems in vitro, testing for inhibition of the proliferation of human tumor cells in culture and in vivo by testing the increment in survival of mice carriers of P388 murine leukemia.
The antiumoral activity in vivo of compounds 1 and 2, expressed as an increment in the survival of P388 murine leukemia carrier mice, was also tested.
(§2) ^a P388 leukemic cells (10^6/animal) were inoculated in the peritoneum in B6D2F1 female mice (body weight=18 g) on day 0; treatment with the platinum compounds, dissolved at the time of use in a physiological solution, was performed on days 1-7, administering IP the doses indicated in the table in a volume equal to 0.1 ml/10 g body weight.
^c ILS=(average of the days of survival of treated mice/average of days of survival of untreated mice) X 100.

[2] = Body weight variation and toxicity in treated P388 carrier mice; type: in vivo; settings: at the end of the treatment
Method: as §2
^b Percentage variation of body weight of the animals at the end of the treatment.

colon carcinoma (LoVo) = test: Inhibition of in vitro proliferation of human tumor cells, LoVo; type: cell-based; settings: 72 hours treatment, cell number vs untreated control; read-out: Inhibitory concentrations (IC50) Lo Vo
Method: as §1
(§3) The inhibitory effect of compounds (1) and (2) on the in vitro proliferation of human tumor cells of ovarian carcinoma (A2780), pulmonary carcinoma (Calu), colon carcinoma (LoVo) and on an ovarian carcinoma line (A2780/cp8) with resistance to cisplatinum is presented in the following Table I.
(§4) Proliferation inhibition is expressed by means of IC50 values, which indicate the concentration of compound (μM) in the culture medium that determines a 50% reduction in the proliferation of the treated cells with respect to untreated cells.
(§5) The IC50 values were extrapolated from dose-response curves obtained by treating for 72 hours the tumor cells with various concentrations of the tested compounds dissolved in the culture medium and checking, at the end of the incubation period, the number of cells present in the treated samples with respect to the number of cells in the untreated samples (control).

[3] = tested on: ovarian carcinoma line (A2780/cp8) with resistance to cisplatinum; test: Inhibition of in vitro proliferation of human tumor cells, A2780/cp8; type: cell-based; settings: 72 hours treatment, cisplatinum-resistant line; read-out: Inhibitory concentrations (IC50) A2780/cp8
Method: as §1, §3, §4, §5

[4] = tested on: ovarian carcinoma (A2780); test: Inhibition of in vitro proliferation of human tumor cells, A2780; type: cell-based; settings: 72 hours treatment, cell number vs untreated control; read-out: Inhibitory concentrations (IC50) A2780
Method: as §1, §3, §4, §5

[5] = tested on: pulmonary carcinoma (Calu); test: Inhibition of in vitro proliferation of human tumor cells, Calu; type: cell-based; settings: 72 hours treatment, cell number vs untreated control; read-out: Inhibitory concentrations (IC50) Calu
Method: as §1, §3, §4, §5

tumor cells = settings: cited from earlier work
[6] = tested on: solid and lymphoproliferative murine tumors; settings: background statement; cited from earlier work
[7] = 10 mg/kg IP daily, ILS = (average survival days treated/untreated) × 100
[8] = 15 mg/kg IP daily, ILS = (average survival days treated/untreated) × 100
[9] = 20 mg/kg IP daily, ILS calculated on 4 animals

Compound	antitumoral activity [1]	ILS (P388 murine leukaemia; [7])	ILS (P388 murine leukaemia; [8])	ILS (P388 murine leukaemia; [9])	Percentage variation of body weight ([2]; 10 mg/kg IP daily)	Percentage variation of body weight ([2]; 15 mg/kg IP daily)	Percentage variation of body weight ([2]; 20 mg/kg IP daily)	IC50 (colon carcinoma (LoVo))	IC50 [3]	IC50 [4]	IC50 [5]	further results
N.NC1CCCCC1.[OH][Pt]([OH])([Cl])[Cl] [trans-[PtCl2(OH)2(NH3){NH2(C6H11)}]]	antitumoral activity in vitro and in vivo											
N.N.[Cl][Pt+2][Cl] [trans-DDP, trans-[PtCl2(NH3)2]]	no antitumoral activity											
COC(C)=N.N.[Cl][Pt][Cl] [Compound 1, trans-[PtCl2(NH3){Z-HN═C(OMe)Me}]]		165	173	190^d	−1.5%	−4.4%	−11.5%	21 µM	35 µM	37 µM	90 µM	
[Cl][Pt][Cl].c1ccncc1.c1ccncc1 [trans-[PtCl2(pyridine)2]]												cytotoxic effect in vitro against tumor cells (tumor cells): higher cytotoxic effect in vitro against tumor cells than trans-DDP
COC(C)=N.N.[Cl][Pt][Cl] [Compound 2, trans-[PtCl2(NH3){E-HN═C(OMe)Me}]]		128	152	132^e	−1.8%	−3.1%	−10%	7 µM	8.6 µM	8.5 µM	55 µM	
COC(C)=N.COC(C)=N.[Cl][Pt][Cl] [trans-[PtCl2{E-HN═C(OMe)Me}2]]												antitumoral activity in vivo [6]: antitumoral activity in vivo
